Article PMC9781268, “2-Arylpropionic Acid Pyrazolamides as Cannabinoid CB2 Receptor Inverse Agonists Endowed with Anti-Inflammatory Properties” (Pharmaceuticals, 2022)

Key:
[1] = Parallel artificial membrane permeability assay, gastrointestinal (PAMPA-GI / PAMPA-GTI); details: Table S1, PAMPA-GTI; for Fa: absorbed fraction
Procedure: A 10 mM solution of each compound (tests and controls) was prepared in DMSO. Then, in a 5 mL glass flask, 250 µL of the freshly prepared solution was homogenized with 4750 µL of PBS at pH 6.6 to a concentration of 10 mM. The solution was then filtered in a 0.45 µm PVDF filter and set aside. Then, 180 µL of a solution of phosphate-bufffered saline (PBS, pH 7.4):DMSO (95:5) was added to the wells of the receptor plate, and 5 µL of the soy L-α-phosphatidylcholine lipid solution (20 mg/mL in dodecane) was added to the wells of the donor plate. After 5 min, the donor plate received 180 µL of the reserved solution containing each compound. […] After this period, the donor plate was removed, and the contents of the recipient plate were transferred to a UV reading plate and read (SpectraMax 5, Molecular Devices) at the maximum wavelengths for each compound. The blank was prepared with 180 µL of PBS solution (pH 7.4):DMSO (95:5). The experiments were carried out in triplicate with two different analyses (n = 2) [37]. The optical density values obtained from the readings at each selected wavelength for each of the compounds were analyzed by comparison with the values of the controls. These values were used to determine the absorbed fraction (Fa %) using the JMP® program version 10.0.

[2] = set-up: method as in ZHU et al., 2002; details: Table S1, PAMPA-GTI, drugs used as standard; ref ZHU et al., 2002; cited from earlier work
[3] = tested on: formalin-induced licking behavior in mice; assay: Formalin-induced licking behavior; format: in vivo, Swiss Webster mice; details: morphine 2.5 mg/kg i.p., ASA 200 mg/kg p.o., LASSBio-2265 1, 3 and 10 mg/kg p.o., compared to vehicle
Procedure: This assay was performed as described by Hunskaar et al. and adapted by Gomes et al.. This model was characterized by a response that occurred in two phases. The first phase (acute neurogenic pain) occurred during the first 5 min after the intraplantar injection of formalin, and the second phase (inflammatory pain) occurred 15 to 30 min post-injection. Mice were pretreated with oral doses of LASSBio-2265 (11, at 1, 3 or 10 mg/kg, p.o.), morphine (2.5 mg/kg, i.p.), acetylsalicylic acid (ASA, 200 mg/kg, p.o.), or the vehicle (same amount of DMSO used to solubilize the substances + NaCl 0.9%) 60 min before the administration of formalin. […] Then, mice (n = 7 per group) received 20 μL of formalin (2.5% v/v) in the dorsal surface of the left hind paw. The time that the mice spent licking the injected paw was immediately recorded. […] The final volume administered to mice was 0.1 mL.

Structure (SMILES)	Pe Exp [1]	Classification [1]	Fa [1]	Pe Lit [2]	Analgesia in the first phase of the formalin test [3]
Nc1nc2c(ncn2COCCO)c(=O)[nH]1 [Acyclovir, reference compound]	0,08 10-6 cm/s	–	–	–	–
O=c1ccc2ccccc2o1 [Coumarin, reference compound]	22,65 10-6 cm/s	HIGH (high intestinal permeability: >70%)	99,98%	–	–
O=C(O)Cc1ccccc1Nc1c(Cl)cccc1Cl [Diclofenac, reference compound]	–	–	–	12,5 10-6cm/s	–
CC(=O)N1CCN(c2ccc(OCC3COC(Cn4ccnc4)(c4ccc(Cl)cc4Cl)O3)cc2)CC1 (centres unmarked) [Ketoconazole, reference compound]	4,93 10-6 cm/s	HIGH (high intestinal permeability: >70%)	84,68%	3,3 10-6cm/s	–
C[C@]12C=CC(=O)C=C1CC[C@@H]1[C@@H]2C(=O)C[C@@]2(C)[C@H]1CC[C@]2(O)C(=O)CO [Prednisone, reference compound]	3,09 10-6 cm/s	–	–	–	–
CNC(=C[N+](=O)[O-])NCCSCc1ccc(CN(C)C)o1 [Ranitidine, reference compound]	0,38 10-6 cm/s	LOW (low intestinal permeability: <29%)	13,48%	–	–
O=C(O)c1cc(/N=N/c2ccc(S(=O)(=O)Nc3ccccn3)cc2)ccc1O [Sulfassalazine]	–	–	–	0,3 10-6cm/s	–
CC(=O)Oc1ccccc1C(=O)O [acetylsalicylic acid, reference compound]	1,69 10-6 cm/s	AVERAGE (medium intestinal permeability: 30–69%)	47,36%	3,8 10-6cm/s	only morphine (2.5 mg/kg) promoted significant analgesia
CN1CC[C@]23c4c5ccc(O)c4O[C@H]2[C@@H](O)C=C[C@H]3[C@H]1C5 [morphine, reference compound]	–	–	–	–	promoted significant analgesia
